According to the NIST ThermoML archive (doi:10.1016/j.jct.2015.03.023):
Several values for one entry are separate records, joined by “and”; a condition that tells them apart may be missing. Equal entries are not always repeated. Numbers after ± are expanded uncertainties.

Key:
[1] = refractive index (Na D-line) (dimensionless); settings: 101.33 kPa, Liquid, Standard Abbe refractometry
[2] = Liquid; for speed of sound / mass density: 101.33 kPa; for speed of sound: Sing-around technique in a fixed-path interferometer; for mass density: Vibrating tube method; for vapor or sublimation pressure: Ebulliometric method (Recirculating still)
[3] = refractive index (Na D-line) (dimensionless); xn = mol fraction of the nth substance listed; settings: 101.22 kPa, Liquid, Standard Abbe refractometry

CCCCn1cc[n+](C)c1.[I-] [1-butyl-3-methylimidazolium iodide]
Settings	mass density, 293.15 K [kg/m3]	mass density, 298.15 K [kg/m3]	mass density, 308.15 K [kg/m3]	refractive index, 293.15 K	refractive index, 298.15 K	refractive index, 308.15 K	speed of sound, 293.15 K [m/s]	speed of sound, 298.15 K [m/s]	speed of sound, 308.15 K [m/s]
[1]	–	–	–	1.5825 ± 0.0011	1.581 ± 0.0011	1.5781 ± 0.0011	–	–	–
[2]	1483.5 ± 0.7	1479.6 ± 0.7	1471.7 ± 0.6	–	–	–	1508.1 ± 1.6	1497.5 ± 1.6	1473.3 ± 1.6

CCCCn1cc[n+](C)c1.[I-] [1-butyl-3-methylimidazolium iodide] + CCCCO
refractive index, [3]
Settings	x1 = 0.108	x1 = 0.171	x1 = 0.311	x1 = 0.381	x1 = 0.51	x1 = 0.574	x1 = 0.623	x1 = 0.802	x1 = 0.85	x1 = 1
293.15 K	–	–	1.4864 ± 0.0006	1.5007 ± 0.0005	1.5237 ± 0.0005	1.5339 ± 0.0005	1.541 ± 0.0005	1.5634 ± 0.0005	1.5686 ± 0.0004	1.5825 ± 0.0004
298.15 K	1.4332 ± 0.0007	1.4508 ± 0.0006	1.4848 ± 0.0006	1.4991 ± 0.0005	1.5221 ± 0.0005	1.5322 ± 0.0005	1.5393 ± 0.0005	1.5618 ± 0.0005	1.567 ± 0.0004	1.581 ± 0.0004
308.15 K	1.4294 ± 0.0007	1.4472 ± 0.0006	1.4815 ± 0.0006	1.4958 ± 0.0005	1.5189 ± 0.0005	1.5289 ± 0.0005	1.5361 ± 0.0005	1.5587 ± 0.0005	1.5639 ± 0.0004	1.5781 ± 0.0004

CCCCO [butan-1-ol]
Settings	mass density, [2] [kg/m3]	refractive index, [1]	speed of sound, [2] [m/s]	vapor or sublimation pressure, [2] [kPa]
293.15 K	809.8 ± 0.2	1.3992 ± 0.0004 and 1.3993 ± 0.0004	1256.3 ± 1.3	–
298.15 K	805.9 ± 0.2	1.3973 ± 0.0004	1239.5 ± 1.3	–
308.15 K	798.2 ± 0.2	1.3932 ± 0.0004	1205.9 ± 1.3	–
353.15 K	–	–	–	21.19 ± 0.49
363.15 K	–	–	–	33.8 ± 0.74
373.15 K	–	–	–	51.73 ± 1.1

CCCCO [butan-1-ol] + CCCCn1cc[n+](C)c1.[I-]
[3], x2 = 0
Settings	refractive index
293.15 K	1.3992 ± 0.0004
298.15 K	1.3973 ± 0.0004
308.15 K	1.3932 ± 0.0004
